The structures appear in SMILES notation.

In the supplement of paper PMC11851430, “Workflow for E3 Ligase Ligand Validation for PROTAC Development” (ACS Chemical Biology, 2025) one finds Kd data, which are given here for one molecule.

Assay in all cases: apparent dissociation constant Kd app (Kinobeads competition, EC50 x correction factor)
Common to all, as to conditions: lysate: Jurkat cell lysate

The target of test [1] is FGFR1 (UniProt P11362).
Test [2] has as its target PRKD3 (UniProt O94806).
In test [3] the target is TGFBR1 (UniProt P36897).
The target of test [4] is LATS1 (UniProt O95835).
The target in test [5] is PAK4 (UniProt O96013).
For test [6], the target named is CDC42BPA (UniProt Q5VT25).
For test [7], the target named is MAP3K4 (UniProt Q9Y6R4).
The target of test [8] is MAP3K11 (UniProt Q16584).
In test [9] the target is CDK1 (UniProt P06493).
For test [10], the target named is PHKG2 (UniProt P15735).
For test [11], the target named is ACVR1 (UniProt Q04771).
Test [12] addresses PRKAA1 (UniProt Q13131).
The target in test [13] is PRKCA (UniProt P17252).
Test [14] has as its target SRC (UniProt P12931).
Test [15] addresses NEK9 (UniProt Q8TD19).
Test [16] deals with ROCK1 (UniProt Q13464).
In test [17] the target is AURKB (UniProt Q96GD4).
Test [18] deals with CSK (UniProt P41240).
Test [19] concerns the target TAOK2 (UniProt Q9UL54).
The target of test [20] is TAOK3 (UniProt Q9H2K8).
Test [21] concerns the target PKN1 (UniProt Q16512).
Test [22] has as its target ITK (UniProt Q08881).

Sequence of FGFR1 (P11362 whole entry, looked up): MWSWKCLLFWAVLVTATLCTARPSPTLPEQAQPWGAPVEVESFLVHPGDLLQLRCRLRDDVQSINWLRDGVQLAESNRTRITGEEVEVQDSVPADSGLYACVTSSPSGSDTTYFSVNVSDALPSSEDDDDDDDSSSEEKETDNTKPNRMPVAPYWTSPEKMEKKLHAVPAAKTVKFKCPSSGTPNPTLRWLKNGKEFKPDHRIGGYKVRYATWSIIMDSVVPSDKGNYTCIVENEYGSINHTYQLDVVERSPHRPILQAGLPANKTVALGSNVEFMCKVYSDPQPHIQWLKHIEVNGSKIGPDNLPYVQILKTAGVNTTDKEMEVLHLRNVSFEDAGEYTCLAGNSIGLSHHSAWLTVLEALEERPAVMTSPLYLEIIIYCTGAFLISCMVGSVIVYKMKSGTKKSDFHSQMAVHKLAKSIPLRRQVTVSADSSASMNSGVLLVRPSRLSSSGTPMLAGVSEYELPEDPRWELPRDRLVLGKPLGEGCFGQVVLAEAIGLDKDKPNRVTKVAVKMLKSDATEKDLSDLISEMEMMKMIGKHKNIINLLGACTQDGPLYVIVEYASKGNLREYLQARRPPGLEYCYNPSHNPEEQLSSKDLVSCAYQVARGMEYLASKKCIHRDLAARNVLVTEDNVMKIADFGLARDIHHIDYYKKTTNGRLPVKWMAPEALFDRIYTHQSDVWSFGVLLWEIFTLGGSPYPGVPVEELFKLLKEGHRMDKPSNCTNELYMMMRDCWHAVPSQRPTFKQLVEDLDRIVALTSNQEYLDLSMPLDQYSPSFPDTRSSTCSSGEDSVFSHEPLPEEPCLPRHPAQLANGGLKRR
Sequence of CDC42BPA (Q5VT25 whole entry): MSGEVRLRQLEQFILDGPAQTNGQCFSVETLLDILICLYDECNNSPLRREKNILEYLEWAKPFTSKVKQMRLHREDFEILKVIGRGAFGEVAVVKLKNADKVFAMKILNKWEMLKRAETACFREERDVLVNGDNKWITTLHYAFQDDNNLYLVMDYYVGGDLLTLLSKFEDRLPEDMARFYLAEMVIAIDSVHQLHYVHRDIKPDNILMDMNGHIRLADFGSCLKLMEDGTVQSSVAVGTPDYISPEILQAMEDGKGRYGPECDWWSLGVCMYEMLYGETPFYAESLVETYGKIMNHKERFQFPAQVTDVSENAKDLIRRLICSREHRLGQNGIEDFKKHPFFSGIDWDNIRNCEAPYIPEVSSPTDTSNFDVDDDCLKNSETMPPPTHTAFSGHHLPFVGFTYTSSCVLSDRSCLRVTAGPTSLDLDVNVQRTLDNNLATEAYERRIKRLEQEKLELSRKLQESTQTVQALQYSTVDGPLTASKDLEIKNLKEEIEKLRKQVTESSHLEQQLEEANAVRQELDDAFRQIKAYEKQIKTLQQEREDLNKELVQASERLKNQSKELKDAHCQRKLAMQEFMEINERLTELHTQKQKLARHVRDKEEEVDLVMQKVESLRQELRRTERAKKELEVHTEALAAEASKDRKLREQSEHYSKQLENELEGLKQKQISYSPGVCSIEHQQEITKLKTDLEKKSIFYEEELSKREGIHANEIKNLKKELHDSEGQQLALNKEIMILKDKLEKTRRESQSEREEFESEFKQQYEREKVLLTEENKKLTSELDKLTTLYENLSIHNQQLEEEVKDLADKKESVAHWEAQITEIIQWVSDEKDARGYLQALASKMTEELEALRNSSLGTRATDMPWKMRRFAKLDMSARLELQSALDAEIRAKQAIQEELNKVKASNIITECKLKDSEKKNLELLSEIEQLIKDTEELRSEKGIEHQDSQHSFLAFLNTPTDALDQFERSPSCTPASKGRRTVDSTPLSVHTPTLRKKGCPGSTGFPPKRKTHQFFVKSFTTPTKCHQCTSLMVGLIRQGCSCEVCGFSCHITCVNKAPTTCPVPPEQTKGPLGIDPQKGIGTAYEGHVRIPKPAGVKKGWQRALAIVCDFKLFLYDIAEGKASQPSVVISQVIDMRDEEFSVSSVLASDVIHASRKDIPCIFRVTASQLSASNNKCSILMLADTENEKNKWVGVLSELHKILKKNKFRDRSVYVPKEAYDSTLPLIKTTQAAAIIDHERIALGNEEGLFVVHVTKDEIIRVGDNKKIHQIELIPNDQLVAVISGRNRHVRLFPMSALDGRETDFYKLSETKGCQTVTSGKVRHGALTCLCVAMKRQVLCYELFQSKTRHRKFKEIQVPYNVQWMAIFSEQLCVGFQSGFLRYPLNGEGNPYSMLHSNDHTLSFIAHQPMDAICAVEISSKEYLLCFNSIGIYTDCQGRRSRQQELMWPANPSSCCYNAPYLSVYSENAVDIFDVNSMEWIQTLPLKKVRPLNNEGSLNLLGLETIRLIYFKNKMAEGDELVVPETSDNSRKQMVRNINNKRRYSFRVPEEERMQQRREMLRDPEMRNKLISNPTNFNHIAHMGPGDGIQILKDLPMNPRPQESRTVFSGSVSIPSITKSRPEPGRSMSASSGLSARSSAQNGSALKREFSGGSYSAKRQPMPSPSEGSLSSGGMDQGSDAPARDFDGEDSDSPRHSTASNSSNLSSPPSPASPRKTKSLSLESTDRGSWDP
Sequence of LATS1 (O95835 whole entry): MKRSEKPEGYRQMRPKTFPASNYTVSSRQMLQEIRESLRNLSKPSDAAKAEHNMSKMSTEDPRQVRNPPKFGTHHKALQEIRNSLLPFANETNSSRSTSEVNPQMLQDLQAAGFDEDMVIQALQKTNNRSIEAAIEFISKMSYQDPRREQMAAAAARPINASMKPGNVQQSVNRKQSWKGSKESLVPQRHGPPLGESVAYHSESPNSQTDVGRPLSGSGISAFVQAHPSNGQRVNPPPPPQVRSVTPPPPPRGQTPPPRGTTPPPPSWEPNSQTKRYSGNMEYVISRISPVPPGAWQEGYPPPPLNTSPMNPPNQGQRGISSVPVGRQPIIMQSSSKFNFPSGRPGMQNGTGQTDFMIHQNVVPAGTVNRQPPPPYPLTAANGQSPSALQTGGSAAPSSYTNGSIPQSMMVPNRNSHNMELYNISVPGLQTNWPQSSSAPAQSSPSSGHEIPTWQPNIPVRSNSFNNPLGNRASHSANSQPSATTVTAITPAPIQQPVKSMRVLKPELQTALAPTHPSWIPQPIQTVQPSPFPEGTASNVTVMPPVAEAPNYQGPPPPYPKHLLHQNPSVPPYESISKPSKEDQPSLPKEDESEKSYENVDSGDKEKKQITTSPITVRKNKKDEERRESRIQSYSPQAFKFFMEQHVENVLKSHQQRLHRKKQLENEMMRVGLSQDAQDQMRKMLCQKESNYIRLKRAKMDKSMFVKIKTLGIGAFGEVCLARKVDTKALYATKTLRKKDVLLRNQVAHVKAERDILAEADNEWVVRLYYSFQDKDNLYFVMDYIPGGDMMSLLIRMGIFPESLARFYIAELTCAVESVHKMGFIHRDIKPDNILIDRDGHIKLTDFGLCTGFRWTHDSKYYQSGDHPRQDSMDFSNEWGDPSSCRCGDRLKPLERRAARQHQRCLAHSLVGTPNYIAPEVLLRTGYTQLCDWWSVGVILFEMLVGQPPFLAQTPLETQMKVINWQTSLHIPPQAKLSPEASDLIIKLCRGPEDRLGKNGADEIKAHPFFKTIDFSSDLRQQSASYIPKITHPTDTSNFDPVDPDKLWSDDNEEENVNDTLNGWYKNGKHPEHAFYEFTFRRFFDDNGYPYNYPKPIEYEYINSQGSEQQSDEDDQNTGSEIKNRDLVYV
Sequence of TAOK3 (Q9H2K8 whole entry): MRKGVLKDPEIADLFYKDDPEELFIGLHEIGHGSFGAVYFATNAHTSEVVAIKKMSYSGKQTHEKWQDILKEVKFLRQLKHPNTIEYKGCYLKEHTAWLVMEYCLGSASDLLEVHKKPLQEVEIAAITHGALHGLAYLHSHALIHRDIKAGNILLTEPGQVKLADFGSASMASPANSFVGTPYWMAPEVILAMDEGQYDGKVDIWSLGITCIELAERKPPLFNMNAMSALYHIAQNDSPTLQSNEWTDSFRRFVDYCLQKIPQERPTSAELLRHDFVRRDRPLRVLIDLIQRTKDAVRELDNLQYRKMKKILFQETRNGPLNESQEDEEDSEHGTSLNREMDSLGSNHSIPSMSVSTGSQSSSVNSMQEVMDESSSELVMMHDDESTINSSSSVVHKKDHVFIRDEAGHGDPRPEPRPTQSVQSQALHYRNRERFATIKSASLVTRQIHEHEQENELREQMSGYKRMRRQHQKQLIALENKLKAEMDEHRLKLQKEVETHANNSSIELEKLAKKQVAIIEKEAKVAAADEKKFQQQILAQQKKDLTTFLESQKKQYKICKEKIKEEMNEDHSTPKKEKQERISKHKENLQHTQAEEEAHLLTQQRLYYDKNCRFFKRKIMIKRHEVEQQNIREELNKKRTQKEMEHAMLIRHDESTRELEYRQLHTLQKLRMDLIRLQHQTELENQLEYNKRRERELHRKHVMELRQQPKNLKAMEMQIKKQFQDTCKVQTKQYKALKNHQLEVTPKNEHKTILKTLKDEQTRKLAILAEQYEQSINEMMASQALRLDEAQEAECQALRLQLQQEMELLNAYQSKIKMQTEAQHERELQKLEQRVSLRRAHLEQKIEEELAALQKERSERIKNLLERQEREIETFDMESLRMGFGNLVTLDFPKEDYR
Sequence of PHKG2 (P15735 whole entry): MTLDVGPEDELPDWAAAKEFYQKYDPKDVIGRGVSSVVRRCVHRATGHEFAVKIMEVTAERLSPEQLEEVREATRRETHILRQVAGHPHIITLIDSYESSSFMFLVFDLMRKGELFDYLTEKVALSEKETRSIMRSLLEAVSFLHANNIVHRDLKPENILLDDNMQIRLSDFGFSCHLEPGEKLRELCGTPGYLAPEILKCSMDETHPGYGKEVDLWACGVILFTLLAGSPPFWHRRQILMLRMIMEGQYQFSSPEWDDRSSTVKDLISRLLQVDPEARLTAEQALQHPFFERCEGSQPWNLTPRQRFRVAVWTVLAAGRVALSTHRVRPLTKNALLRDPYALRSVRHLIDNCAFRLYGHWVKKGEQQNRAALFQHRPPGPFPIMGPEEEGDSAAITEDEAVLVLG

Regarding `NC(=O)c1ccccc1Nc1nc(Nc2ccc(N3CCNCC3)cc2)ncc1Cl`, the Kd stood at 144 nM in test [1]; 255 nM in [2]; 1370 nM in [3]; 48.9 nM in test [4]; 424 nM in test [5]; 1320 nM in [6]. For the same molecule, the Kd in test [7] was 90 nM; in test [8], 231 nM; in test [9], 1910 nM; in test [10] it was 1150 nM; in test [11] it was 1270 nM; in test [12], 83 nM. Further, the Kd in test [13] is 966 nM; in test [14] it was 808 nM; in test [15], 96.2 nM; in test [16], 2000 nM; in test [17], 35.6 nM; in test [18] it was 2170 nM. Also, the Kd in [19] stood at 558 nM; in [20] it was 878 nM; in test [21], 1520 nM; in test [22], 38.6 nM.
